# According to US8445501B2, “Substituted 7-carboxamido-pyrrolo[3,2-d]pyrimidines” (Takeda GmbH, priority 2008, dated 2013):
# Biological target: T1, human PDE5 (Homo sapiens, UniProt O76074)
# T1 construct: from tissue; host or cells: platelets from fresh blood of human donors (lysate, 10,000 g supernatant)
# Assay: Inhibition of the type 5 phosphodiesterase (PDE5) activity, modified SPA test with platelet lysate
# Assay type: biochemical
# Conditions: PDE5 from human platelet lysate, 0.5 μM cGMP
# Outline: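 Human platelet lysate (10,000 g supernatant) as PDE5 source in SPA with 0.5 μM cGMP plus [3H]cGMP tracer, pH 7.4, 5 mM Mg2+, 1 μM motapizone and 10 nM PDE2 inhibitor; 10–20% conversion. 5 min preincubation, 15 min at 37 °C, stopped with SPA beads/IBMX. IC50 by non-linear regression.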
row,SMILES,IC50 [nM]
1,"CCOC(=O)N[C@H]1CC[C@H](NC(=O)c2c[nH]c3c(-c4c(OCC5CC5)ccc5c4OCO5)ncnc23)CC1 [Example 6, trans-[4-({1-[4-(5-Cyclopropylmethoxy-benzo[1,3]dioxol-4-yl)-5H-pyrrolo[3,2-d]pyrimidin-7-yl]-methanoyl}-amino)-cyclohexyl]-carbamic acid ethyl ester]",0.0851
2,"O=CN1CC[C@@H](NC(=O)c2c[nH]c3c(-c4c(OCC5CC5)ccc5c4OCO5)ncnc23)C1 [Example 14, 4-(5-Cyclopropylmethoxy-benzo[1,3]dioxol-4-yl)-5H-pyrrolo[3,2-d]pyrimidine-7-carboxylic acid ((R)-1-formyl-pyrrolidin-3-yl)-amide]",1.38
3,"O=CN1CCCC(CNC(=O)c2c[nH]c3c(-c4c(OCC5CC5)ccc5c4OCO5)ncnc23)C1 (stereo not shown) [Example 28, 4-(5-Cyclopropylmethoxy-benzo[1,3]dioxol-4-yl)-5H-pyrrolo[3,2-d]pyrimidine-7-carboxylic acid (1-formyl-piperidin-3-ylmethyl)-amide]",0.692
4,"COCC(=O)N[C@H]1CC[C@@H](NC(=O)c2c[nH]c3c(-c4cc(OC)ccc4OCC4CC4)ncnc23)CC1 [Example 69, cis-4-(2-Cyclopropylmethoxy-5-methoxy-phenyl)-5H-pyrrolo[3,2-d]pyrimidine-7-carboxylic acid [4-(2-methoxy-acetylamino)-cyclohexyl]-amide]",1.78
5,"COCC(=O)N1CC[C@@H](NC(=O)c2c[nH]c3c(-c4c(OCC5CC5)ccc5c4OCO5)ncnc23)C1 [Example 13, 4-(5-Cyclopropylmethoxy-benzo[1,3]dioxol-4-yl)-5H-pyrrolo[3,2-d]pyrimidine-7-carboxylic acid [(R)-1-(2-methoxy-acetyl)pyrrolidin-3-yl]-amide]",0.776
6,"CCOC(=O)N1CCC(NC(=O)c2c[nH]c3c(-c4cc(OC)ccc4OCC4CC4)ncnc23)CC1 [Example 74, 4-{[4-(2-Cyclopropylmethoxy-5-methoxy-phenyl)-5H-pyrrolo[3,2-d]pyrimidine-7-carbonyl]-amino}-piperidine-1-carboxylic acid ethyl ester]",0.55
7,"CC(=O)N1CCC[C@@H](NC(=O)c2c[nH]c3c(-c4c(OCC5CC5)ccc5c4OCO5)ncnc23)C1 [Example 49, 4-(5-Cyclopropylmethoxy-benzo[1,3]dioxol-4-yl)-5H-pyrrolo[3,2-d]pyrimidine-7-carboxylic acid ((R)-1-acetyl-piperidin-3-yl)-amide]",0.339
8,"CC(=O)N1CCC(NC(=O)c2c[nH]c3c(-c4c(OCC5CC5)ccc5c4OCO5)ncnc23)CC1 [Example 11, 4-(5-Cyclopropylmethoxy-benzo[1,3]dioxol-4-yl)-5H-pyrrolo[3,2-d]pyrimidine-7-carboxylic acid (1-acetyl-piperidin-4-yl)-amide]",0.145
9,"CCOC(=O)N[C@H]1CC[C@H](NC(=O)c2c[nH]c3c(-c4cc(OC)ccc4OCC4CC4)ncnc23)CC1 [Example 66, trans-(4-{[4-(2-Cyclopropylmethoxy-5-methoxy-phenyl)-5H-pyrrolo[3,2-d]pyrimidine-7-carbonyl]-amino}-cyclohexyl)-carbamic acid ethyl ester]",0.631
10,"CCOC(=O)N1CCOC(CNC(=O)c2c[nH]c3c(-c4c(OCC5CC5)ccc5c4OCO5)ncnc23)C1 (stereo not shown) [Example 38, 2-({[4-(5-Cyclopropylmethoxy-benzo[1,3]dioxol-4-yl)-5H-pyrrolo[3,2-d]pyrimidine-7-carbonyl]-amino}-methyl)-morpholine-4-carboxylic acid ethyl ester]",0.398
11,"CCC(=O)N1CC(NC(=O)c2c[nH]c3c(-c4c(OCC5CC5)ccc5c4OCO5)ncnc23)C1 [Example 40, 4-(5-Cyclopropylmethoxy-benzo[1,3]dioxol-4-yl)-5H-pyrrolo[3,2-d]pyrimidine-7-carboxylic acid (1-propionyl-azetidin-3-yl)-amide]",0.427
12,"COc1ccc(-c2ncnc3c(C(=O)N[C@H]4CC[C@@H](NC(=O)C5CC5)CC4)c[nH]c23)c(OCC2CC2)c1 [Example 56, cis-4-(2-Cyclopropylmethoxy-4-methoxy-phenyl)-5H-pyrrolo[3,2-d]pyrimidine-7-carboxylic acid [4-(cyclopropanecarbonyl-amino)cyclohexyl]-amide]",0.282

# Other lines, results leading:
row,IC50 [nM],SMILES
1,0.646,"COc1ccc(OCC2CC2)c(-c2ncnc3c(C(=O)N[C@H]4CC[C@H](NC(=O)C5(O)CC5)CC4)c[nH]c23)c1 [Example 210, trans-4-(2-Cyclopropylmethoxy-5-methoxy-phenyl)-5H-pyrrolo[3,2-d]pyrimidine-7-carboxylic acid {4-[(1-hydroxy-cyclopropanecarbonyl)-amino]-cyclohexyl}-amide]"
2,1.91,"O=C(CO)N[C@H]1CC[C@H](NC(=O)c2c[nH]c3c(-c4cc(F)ccc4OCC4CC4)ncnc23)CC1 [Example 222, trans-4-(2-Cyclopropylmethoxy-5-fluoro-phenyl)-5H-pyrrolo[3,2-d]pyrimidine-7-carboxylic acid [4-(2-hydroxy-acetylamino)-cyclohexyl]-amide]"
3,0.617,"C[C@H](O)C(=O)N1CCC[C@@H](NC(=O)c2c[nH]c3c(-c4c(OCC5CC5)ccc5c4OCO5)ncnc23)C1 [Example 198, 4-(5-Cyclopropylmethoxy-benzo[1,3]dioxol-4-yl)-5H-pyrrolo[3,2-d]pyrimidine-7-carboxylic acid [(R)-1-((S)-2-hydroxy-propanoyl)piperidin-3-yl]-amide]"
4,0.389,O=C(CO)N[C@H]1CC[C@@H](NC(=O)c2c[nH]c3c(-c4c(OCC5CC5)ccc5c4OCO5)ncnc23)CC1 [Example 174]
5,0.832,"COc1ccc(-c2ncnc3c(C(=O)NC4CCN(C(=O)CO)CC4)c[nH]c23)c(OCC2CC2)c1 [Example 205, 4-(2-Cyclopropylmethoxy-4-methoxy-phenyl)-5H-pyrrolo[3,2-d]pyrimidine-7-carboxylic acid [1-(2-hydroxy-ethanoyl)-piperidin-4-yl]amide]"
6,3.31,"CCOC(=O)N1CCC(NC(=O)c2c[nH]c3c(-c4ccccc4OCC4CC4)ncnc23)CC1 [Example 95, 4-{[4-(2-Cyclopropylmethoxy-phenyl)-5H-pyrrolo[3,2-d]pyrimidine-7-carbonyl]-amino}-piperidine-1-carboxylic acid ethyl ester]"
7,0.55,"COc1ccc(OCC2CC2)c(-c2ncnc3c(C(=O)NC4CCN(C(=O)C5(O)CC5)CC4)c[nH]c23)c1 [Example 213, 4-(2-Cyclopropylmethoxy-5-methoxy-phenyl)-5H-pyrrolo[3,2-d]pyrimidine-7-carboxylic acid [1-(1-hydroxy-cyclopropanecarbonyl)-piperidin-4-yl]-amide]"
8,0.891,"COc1cc(OCC2CC2)c(-c2ncnc3c(C(=O)N[C@H]4CC[C@H](NC(C)=O)CC4)c[nH]c23)cc1F [Example 106, trans-4-(2-Cyclopropylmethoxy-5-fluoro-4-methoxy-phenyl)-5H-pyrrolo[3,2-d]pyrimidine-7-carboxylic acid (4-acetylamino-cyclohexyl)-amide]"
9,0.692,"COc1ccc(OCC2CC2)c(-c2ncnc3c(C(=O)N[C@H]4CC[C@@H](NC(=O)C5(O)CC5)CC4)c[nH]c23)c1 [Example 209, cis-4-(2-Cyclopropylmethoxy-5-methoxy-phenyl)-5H-pyrrolo[3,2-d]pyrimidine-7-carboxylic acid {4-[(1-hydroxy-cyclopropanecarbonyl)-amino]-cyclohexyl}-amide]"
10,10,"COCCOc1ccc2c(c1-c1ncnc3c(C(=O)NC4CCN(C(=O)[C@H](C)O)CC4)c[nH]c13)OCO2 [Example 263, 4-[5-(2-Methoxy-ethoxy)-benzo[1,3]dioxol-4-yl]-5H-pyrrolo[3,2-d]pyrimidine-7-carboxylic acid [1-((S)-2-hydroxy-propionyl)piperidin-4-yl]-amide]"
11,2.34,"CC(=O)N1CCC(NC(=O)c2c[nH]c3c(-c4cc(F)c(OC(F)F)cc4OCC4CC4)ncnc23)CC1 [Example 279, 4-[2-Cyclopropylmethoxy-4-(1,1-difluoro-methoxy)-5-fluoro-phenyl]-5H-pyrrolo[3,2-d]pyrimidine-7-carboxylic acid (1-acetyl-piperidin-4-yl)-amide]"
12,3.98,"COCC(=O)N1CCC(NC(=O)c2c[nH]c3c(-c4cc(F)ccc4OCC4CC4)ncnc23)CC1 [Example 86, 4-(2-Cyclopropylmethoxy-5-fluoro-phenyl)-5H-pyrrolo[3,2-d]pyrimidine-7-carboxylic acid [1-(2-methoxy-acetyl)piperidin-4-yl]-amide]"
13,0.105,"CCC(=O)N1CCC[C@@H](NC(=O)c2c[nH]c3c(-c4cc(F)c(OC)cc4OCC4CC4)ncnc23)C1 [Example 111, 4-(2-Cyclopropylmethoxy-5-fluoro-4-methoxy-phenyl)-5H-pyrrolo[3,2-d]pyrimidine-7-carboxylic acid ((R)-1-propionyl-piperidin-3-yl)-amide]"
14,2.14,"O=C(NC1CCN(C(=O)C2CC2)CC1)c1c[nH]c2c(-c3ccccc3OCC3CC3)ncnc12 [Example 96, 4-(2-Cyclopropylmethoxy-phenyl)-5H-pyrrolo[3,2-d]pyrimidine-7-carboxylic acid (1-cyclopropanecarbonyl-piperidin-4-yl)-amide]"
15,0.851,"C[C@H](O)C(=O)N1CCC[C@H](NC(=O)c2c[nH]c3c(-c4c(OCC5CC5)ccc5c4OCO5)ncnc23)C1 [Example 197, 4-(5-Cyclopropylmethoxy-benzo[1,3]dioxol-4-yl)-5H-pyrrolo[3,2-d]pyrimidine-7-carboxylic acid [(S)-1-((S)-2-hydroxy-propanoyl)piperidin-3-yl]-amide]"
16,0.457,"COc1cc(OCC2CC2)c(-c2ncnc3c(C(=O)N[C@H]4CC[C@H](NC(=O)C5(O)CC5)CC4)c[nH]c23)cc1F [Example 235, trans-4-(2-Cyclopropylmethoxy-5-fluoro-4-methoxy-phenyl)-5H-pyrrolo[3,2-d]pyrimidine-7-carboxylic acid {4-[(1-hydroxy-cyclopropanecarbonyl)-amino]-cyclohexyl}-amide]"
